# In US20080009418A1, “Selective Inhibitors” (Alchemia LTD., priority 2004, published 2008):
# Columns and labels:
# Conditions in all cases: compound at 10 μM
# Human δ-opioid (DOP) = biological target: T1, Human δ-opioid (DOP) (Homo sapiens, UniProt P41143); experiment: Radioligand binding, human δ-opioid (DOP) membranes, FlashPlate, [3H]-Bremazocine
# T1 construct: purchased Perkin Elmer Biosignal
# How it was run: (§1)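 Cloned human receptor membranes were coated onto FlashPlate wells and incubated with radioligand and compound (added from a 0.5 mM DMSO daughter plate) for 1 hour at room temperature in the dark. Scintillation counting gave percent inhibition, with DMSO defining total and reference ligand defining non-specific binding.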
# Human κ-Opioid (KOP) = biological target: T2, Human κ-Opioid (KOP) (Homo sapiens, UniProt P41145); experiment: Radioligand binding, human κ-opioid (KOP) membranes, filtration, [3H]-Diprenorphine
# T2 construct: purchased Perkin Elmer Biosignal
# T2 sequence (P41145 whole entry): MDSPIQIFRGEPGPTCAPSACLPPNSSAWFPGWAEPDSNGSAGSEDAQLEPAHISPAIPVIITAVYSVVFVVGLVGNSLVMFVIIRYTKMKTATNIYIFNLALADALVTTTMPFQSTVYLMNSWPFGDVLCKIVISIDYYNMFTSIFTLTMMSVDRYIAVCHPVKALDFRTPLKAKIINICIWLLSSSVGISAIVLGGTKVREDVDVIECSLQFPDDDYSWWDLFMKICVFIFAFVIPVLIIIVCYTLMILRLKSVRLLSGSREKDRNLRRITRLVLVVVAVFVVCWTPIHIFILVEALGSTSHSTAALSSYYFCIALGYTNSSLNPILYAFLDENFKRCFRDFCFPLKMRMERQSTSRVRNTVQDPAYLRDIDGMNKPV
# How it was run: (§2)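 Membranes from cloned human receptors were incubated with compound and radioligand for 1 hour at room temperature. Bound ligand was collected on 0.3% PEI-soaked filters, washed with cold 50 mM Tris-HCl pH 7.4, and counted by scintillation. Percent inhibition was computed against DMSO totals and reference-ligand nonspecific wells.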
# Human Melanocortin (MC3) = biological target: T3, Human Melanocortin (MC3) (Homo sapiens, UniProt P41968); experiment: Radioligand binding, human melanocortin MC3 membranes, FlashPlate, [125I]-NDP-αMSH
# T3 construct: purchased Perkin Elmer Biosignal
# T3 sequence (P41968 whole entry): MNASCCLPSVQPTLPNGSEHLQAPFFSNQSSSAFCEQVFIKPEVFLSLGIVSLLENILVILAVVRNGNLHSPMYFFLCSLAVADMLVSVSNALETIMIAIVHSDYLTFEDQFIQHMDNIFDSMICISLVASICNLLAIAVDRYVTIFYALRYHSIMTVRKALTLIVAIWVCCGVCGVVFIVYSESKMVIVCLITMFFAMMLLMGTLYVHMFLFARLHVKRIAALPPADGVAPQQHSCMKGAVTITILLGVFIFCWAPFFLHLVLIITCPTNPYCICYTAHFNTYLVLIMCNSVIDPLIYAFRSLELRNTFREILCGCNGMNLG
# How it was run: as §1
# Human Melanocortin (MC4) = biological target: T4, Human Melanocortin (MC4) (Homo sapiens, UniProt P32245); experiment: Radioligand binding, human melanocortin MC4 membranes, FlashPlate, [125I]-NDP-αMSH
# T4 construct: purchased Perkin Elmer Biosignal
# T4 sequence (P32245 whole entry): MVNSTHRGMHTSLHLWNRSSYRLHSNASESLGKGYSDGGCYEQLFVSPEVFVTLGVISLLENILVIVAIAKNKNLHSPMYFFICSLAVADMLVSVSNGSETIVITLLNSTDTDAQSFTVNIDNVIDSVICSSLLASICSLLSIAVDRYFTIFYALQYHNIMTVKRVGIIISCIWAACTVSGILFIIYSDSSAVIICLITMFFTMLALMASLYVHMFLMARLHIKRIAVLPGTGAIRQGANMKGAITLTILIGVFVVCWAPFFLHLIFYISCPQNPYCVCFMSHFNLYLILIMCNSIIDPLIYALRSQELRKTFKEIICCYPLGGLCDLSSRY
# How it was run: as §1
# Human melanocortin (MC5) = biological target: T5, Human melanocortin (MC5) (Homo sapiens, UniProt P33032); experiment: Radioligand binding, human melanocortin MC5 membranes, FlashPlate, [125I]-NDP-αMSH
# T5 construct: purchased Perkin Elmer Biosignal
# T5 sequence (P33032 whole entry): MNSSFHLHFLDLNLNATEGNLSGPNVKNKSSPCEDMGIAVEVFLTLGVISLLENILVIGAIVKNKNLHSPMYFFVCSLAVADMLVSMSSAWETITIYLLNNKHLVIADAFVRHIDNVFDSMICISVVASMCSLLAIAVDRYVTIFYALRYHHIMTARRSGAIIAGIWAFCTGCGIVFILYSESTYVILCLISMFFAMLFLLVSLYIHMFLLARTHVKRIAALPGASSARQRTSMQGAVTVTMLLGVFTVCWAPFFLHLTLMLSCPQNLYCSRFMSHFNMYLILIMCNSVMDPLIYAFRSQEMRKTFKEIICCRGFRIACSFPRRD
# How it was run: as §1
# [1] = biological target: T6, Human melanin-concentrating hormone (MCH1) (Homo sapiens, UniProt Q99705); experiment: Radioligand binding, human melanin-concentrating hormone MCH1 membranes, FlashPlate, [125I]-S36057
# T6 construct: purchased Perkin Elmer Biosignal
# T6 sequence (Q99705 whole entry): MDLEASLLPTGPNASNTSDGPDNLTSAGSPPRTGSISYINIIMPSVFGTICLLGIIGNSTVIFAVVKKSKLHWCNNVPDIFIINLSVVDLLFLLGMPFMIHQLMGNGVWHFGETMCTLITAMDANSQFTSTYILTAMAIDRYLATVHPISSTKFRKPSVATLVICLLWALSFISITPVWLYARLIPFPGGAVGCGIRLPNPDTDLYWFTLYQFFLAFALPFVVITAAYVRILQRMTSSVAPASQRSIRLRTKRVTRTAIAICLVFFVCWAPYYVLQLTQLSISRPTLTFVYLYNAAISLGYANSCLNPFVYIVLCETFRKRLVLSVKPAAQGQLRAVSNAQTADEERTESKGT
# How it was run: as §1
# Human μ-opioid (MOP) = biological target: T7, Human μ-opioid (MOP) (Homo sapiens, UniProt P35372); experiment: Radioligand binding, human μ-opioid (MOP) membranes, FlashPlate, [3H]-Naloxone
# T7 construct: purchased Perkin Elmer Biosignal
# T7 sequence (P35372 whole entry): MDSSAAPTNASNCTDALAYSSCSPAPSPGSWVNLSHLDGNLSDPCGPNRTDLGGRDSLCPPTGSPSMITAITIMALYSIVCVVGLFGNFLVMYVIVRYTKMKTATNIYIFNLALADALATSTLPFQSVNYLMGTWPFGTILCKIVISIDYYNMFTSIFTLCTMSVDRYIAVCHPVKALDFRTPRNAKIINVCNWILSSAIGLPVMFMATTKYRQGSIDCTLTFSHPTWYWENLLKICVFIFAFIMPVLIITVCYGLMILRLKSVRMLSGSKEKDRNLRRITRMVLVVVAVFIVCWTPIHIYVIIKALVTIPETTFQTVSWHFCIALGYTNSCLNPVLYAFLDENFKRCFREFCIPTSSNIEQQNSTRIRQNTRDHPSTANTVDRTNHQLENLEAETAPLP
# How it was run: as §1
# Human neurokinin (NK1) = biological target: T8, Human neurokinin (NK1) (Homo sapiens, UniProt P25103); experiment: Radioligand binding, human neurokinin NK1 membranes, filtration, [125I]-Substance P
# T8 construct: purchased Perkin Elmer Biosignal
# T8 sequence (P25103 whole entry): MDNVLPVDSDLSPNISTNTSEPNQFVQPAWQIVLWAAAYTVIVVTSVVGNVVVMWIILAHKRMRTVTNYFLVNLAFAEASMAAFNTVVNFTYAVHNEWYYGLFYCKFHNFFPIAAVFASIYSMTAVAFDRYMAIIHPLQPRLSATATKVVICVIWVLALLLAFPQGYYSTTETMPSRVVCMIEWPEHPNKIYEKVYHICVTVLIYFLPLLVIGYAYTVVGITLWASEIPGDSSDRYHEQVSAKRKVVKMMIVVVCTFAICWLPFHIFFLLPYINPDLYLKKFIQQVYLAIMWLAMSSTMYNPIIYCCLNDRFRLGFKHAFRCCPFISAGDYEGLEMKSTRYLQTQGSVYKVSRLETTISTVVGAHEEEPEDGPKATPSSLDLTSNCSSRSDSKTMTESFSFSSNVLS
# How it was run: as §2
# [2] = biological target: T9, Human neuropeptide Y (NPY-Y1) (Homo sapiens, UniProt P25929); experiment: Radioligand binding, human neuropeptide Y NPY-Y1 membranes, FlashPlate, [125I]-PYY
# T9 construct: purchased Perkin Elmer Biosignal
# T9 sequence (P25929 1-384): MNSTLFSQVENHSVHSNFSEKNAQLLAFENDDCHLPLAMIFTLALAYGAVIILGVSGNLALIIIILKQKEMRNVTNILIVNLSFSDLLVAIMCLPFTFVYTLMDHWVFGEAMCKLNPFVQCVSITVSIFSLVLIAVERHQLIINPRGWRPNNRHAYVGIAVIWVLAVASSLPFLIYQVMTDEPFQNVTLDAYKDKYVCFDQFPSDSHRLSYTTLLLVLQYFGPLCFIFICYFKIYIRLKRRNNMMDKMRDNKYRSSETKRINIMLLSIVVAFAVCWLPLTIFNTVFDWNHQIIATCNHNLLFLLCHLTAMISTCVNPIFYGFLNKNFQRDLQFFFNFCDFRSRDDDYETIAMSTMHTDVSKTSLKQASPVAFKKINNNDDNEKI
# How it was run: as §1
# Human opioid (ORL1) = biological target: T10, Human opioid (ORL1) (Homo sapiens, UniProt P41146); experiment: Radioligand binding, human opioid ORL1 membranes, FlashPlate, [125I]-Nociceptin
# T10 construct: purchased Perkin Elmer Biosignal
# T10 sequence (P41146 whole entry): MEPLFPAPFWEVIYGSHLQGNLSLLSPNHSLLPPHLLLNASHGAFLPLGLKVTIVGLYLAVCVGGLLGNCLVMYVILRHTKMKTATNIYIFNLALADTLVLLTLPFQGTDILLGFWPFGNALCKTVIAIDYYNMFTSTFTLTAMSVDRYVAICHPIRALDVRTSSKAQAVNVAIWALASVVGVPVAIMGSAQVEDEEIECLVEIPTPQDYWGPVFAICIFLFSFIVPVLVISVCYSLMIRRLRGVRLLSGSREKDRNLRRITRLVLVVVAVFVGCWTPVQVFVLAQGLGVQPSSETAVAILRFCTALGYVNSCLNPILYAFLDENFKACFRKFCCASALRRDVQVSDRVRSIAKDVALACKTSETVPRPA
# How it was run: as §1
# Mouse urotensin (mUR2) = biological target: T11, Mouse urotensin (mUR2) (Mus musculus, UniProt Q8VIH9); experiment: Radioligand binding, mouse urotensin mUR2 membranes, FlashPlate, [125I]-Urotensin II
# T11 construct: purchased Perkin Elmer Biosignal
# T11 sequence (Q8VIH9 1-385): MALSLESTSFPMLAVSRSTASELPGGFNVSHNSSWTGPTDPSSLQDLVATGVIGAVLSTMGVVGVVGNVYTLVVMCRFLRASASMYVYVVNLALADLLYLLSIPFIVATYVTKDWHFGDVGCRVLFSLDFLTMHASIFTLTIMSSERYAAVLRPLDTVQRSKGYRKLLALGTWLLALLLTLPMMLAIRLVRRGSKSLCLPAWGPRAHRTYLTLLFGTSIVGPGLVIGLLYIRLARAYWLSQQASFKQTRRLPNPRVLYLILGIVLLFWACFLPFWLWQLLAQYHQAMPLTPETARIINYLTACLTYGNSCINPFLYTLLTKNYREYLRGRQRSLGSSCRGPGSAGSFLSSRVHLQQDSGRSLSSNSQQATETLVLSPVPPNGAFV
# How it was run: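 Cloned mouse urotensin (mUR2) receptor membranes from Perkin Elmer Biosignal were immobilized in FlashPlate microplates using a proprietary coating. Each well got 19.5 μl buffer, then 0.5 μl of DMSO, reference ligand, or compound. Adding 5 μl of [125I]-Urotensin II, diluted to 5× final concentration in binding buffer, started binding. Plates were sealed with TopSeal-A and incubated 1 hour at room temperature in the dark. Wells were counted for 30 seconds each on a TopCount after a 60-second delay, and percentage inhibition was calculated.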
# T1 sequence (P41143 whole entry): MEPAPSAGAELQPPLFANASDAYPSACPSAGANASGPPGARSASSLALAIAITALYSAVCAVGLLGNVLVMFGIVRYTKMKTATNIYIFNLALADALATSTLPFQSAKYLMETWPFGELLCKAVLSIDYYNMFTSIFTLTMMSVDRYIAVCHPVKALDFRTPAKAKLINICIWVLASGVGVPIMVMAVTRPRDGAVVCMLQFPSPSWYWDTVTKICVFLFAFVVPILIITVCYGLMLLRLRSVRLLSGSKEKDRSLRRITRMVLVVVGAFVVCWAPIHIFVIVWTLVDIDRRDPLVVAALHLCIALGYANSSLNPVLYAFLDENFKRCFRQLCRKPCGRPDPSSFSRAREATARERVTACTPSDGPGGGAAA
smiles,measurement,setting,value
CO[C@H]1[C@H](O)[C@@H](COCc2ccc(Cl)cc2)OC(OCc2ccc(Cl)cc2)[C@@H]1NC(=O)CCCNC(=N)N (stereo partly shown) [compound 108],"A1 radioligand binding, percentage inhibition",Human δ-opioid (DOP); [3H]-Bremazocine,− (“−” indicates less than 50% inhibition at 10 μM)
same,"A2 radioligand binding, percentage inhibition",Human κ-Opioid (KOP); [3H]-Diprenorphine,− (“−” indicates less than 50% inhibition at 10 μM)
same,"A3 radioligand binding, percentage inhibition",Human Melanocortin (MC3); [125I]-NDP-αMSH,+ (“+” indicates greater than 50% inhibition at 10 μM)
same,"A4 radioligand binding, percentage inhibition",Human Melanocortin (MC4); [125I]-NDP-αMSH,+ (“+” indicates greater than 50% inhibition at 10 μM)
same,"A5 radioligand binding, percentage inhibition",Human melanocortin (MC5); [125I]-NDP-αMSH,+ (“+” indicates greater than 50% inhibition at 10 μM)
same,"A6 radioligand binding, percentage inhibition",[1]; [125I]-S36057,− (“−” indicates less than 50% inhibition at 10 μM)
same,"A7 radioligand binding, percentage inhibition",Human μ-opioid (MOP); [3H]-Naloxone,− (“−” indicates less than 50% inhibition at 10 μM)
same,"A8 radioligand binding, percentage inhibition",Human neurokinin (NK1); [125I]-Substance P,+ (“+” indicates greater than 50% inhibition at 10 μM)
same,"A9 radioligand binding, percentage inhibition",[2]; [125I]-PYY,− (“−” indicates less than 50% inhibition at 10 μM)
same,"A10 radioligand binding, percentage inhibition",Human opioid (ORL1); [125I]-Nociceptin,− (“−” indicates less than 50% inhibition at 10 μM)
same,"A11 radioligand binding, percentage inhibition",Mouse urotensin (mUR2); [125I]-Urotensin II,− (“−” indicates less than 50% inhibition at 10 μM)
COC[C@H]1OC(OCCc2ccccc2)[C@H](NC(=O)CCNC(=N)N)[C@@H](OCc2ccccc2)[C@@H]1O (stereo partly shown) [compound 46],A1 radioligand binding inhibition,Human δ-opioid (DOP); human δ-opioid (DOP) membranes,− (“−” indicates less than 50% inhibition at 10 μM)
same,A2 radioligand binding inhibition,Human κ-Opioid (KOP); human κ-opioid (KOP) membranes,− (“−” indicates less than 50% inhibition at 10 μM)
same,A3 radioligand binding inhibition,Human Melanocortin (MC3); human melanocortin MC3 membranes,− (“−” indicates less than 50% inhibition at 10 μM)
same,A4 radioligand binding inhibition,Human Melanocortin (MC4); human melanocortin MC4 membranes,− (“−” indicates less than 50% inhibition at 10 μM)
same,A5 radioligand binding inhibition,Human melanocortin (MC5); human melanocortin MC5 membranes,− (“−” indicates less than 50% inhibition at 10 μM)
same,A6 radioligand binding inhibition,[1]; human MCH1 membranes,− (“−” indicates less than 50% inhibition at 10 μM)
same,A7 radioligand binding inhibition,Human μ-opioid (MOP); human μ-opioid (MOP) membranes,− (“−” indicates less than 50% inhibition at 10 μM)
same,A8 radioligand binding inhibition,Human neurokinin (NK1); human neurokinin NK1 membranes,+ (“+” indicates greater than 50% inhibition at 10 μM)
same,A9 radioligand binding inhibition,[2]; human NPY-Y1 membranes,− (“−” indicates less than 50% inhibition at 10 μM)
same,A10 radioligand binding inhibition,Human opioid (ORL1); human ORL1 membranes,− (“−” indicates less than 50% inhibition at 10 μM)
same,A11 radioligand binding inhibition,Mouse urotensin (mUR2); mouse urotensin mUR2 membranes,− (“−” indicates less than 50% inhibition at 10 μM)
CO[C@H]1[C@H](O)[C@@H](COCc2ccc3ccccc3c2)OC(OCc2ccc(Cl)cc2)[C@@H]1NC(=O)C1CCCN(C(=N)N)C1 (stereo partly shown) [compound 353],"A1: inhibition of radioligand binding, human δ-opioid (DOP)",Human δ-opioid (DOP); [3H]-Bremazocine,− (“−” indicates less than 50% inhibition at 10 μM)
same,"A2: inhibition of radioligand binding, human κ-opioid (KOP)",Human κ-Opioid (KOP); [3H]-Diprenorphine,− (“−” indicates less than 50% inhibition at 10 μM)
same,"A3: inhibition of radioligand binding, human melanocortin (MC3)",Human Melanocortin (MC3); [125I]-NDP-αMSH,− (“−” indicates less than 50% inhibition at 10 μM)
same,"A4: inhibition of radioligand binding, human melanocortin (MC4)",Human Melanocortin (MC4); [125I]-NDP-αMSH,− (“−” indicates less than 50% inhibition at 10 μM)
same,"A5: inhibition of radioligand binding, human melanocortin (MC5)",Human melanocortin (MC5); [125I]-NDP-αMSH,− (“−” indicates less than 50% inhibition at 10 μM)
same,"A6: inhibition of radioligand binding, human melanin-concentrating hormone (MCH1)",[1]; [125I]-S36057,− (“−” indicates less than 50% inhibition at 10 μM)
same,"A7: inhibition of radioligand binding, human μ-opioid (MOP)",Human μ-opioid (MOP); [3H]-Naloxone,− (“−” indicates less than 50% inhibition at 10 μM)
same,"A8: inhibition of radioligand binding, human neurokinin (NK1)",Human neurokinin (NK1); [125I]-Substance P,+ (“+” indicates greater than 50% inhibition at 10 μM)
same,"A9: inhibition of radioligand binding, human neuropeptide Y (NPY-Y1)",[2]; [125I]-PYY,− (“−” indicates less than 50% inhibition at 10 μM)
same,"A10: inhibition of radioligand binding, human opioid (ORL1)",Human opioid (ORL1); [125I]-Nociceptin,− (“−” indicates less than 50% inhibition at 10 μM)
same,"A11: inhibition of radioligand binding, mouse urotensin (mUR2)",Mouse urotensin (mUR2); [125I]-Urotensin II,− (“−” indicates less than 50% inhibition at 10 μM)
COCC1OC(OCc2ccc3ccccc3c2)C(NC(=O)CCN)C(OCc2ccc(-c3ccccc3)cc2)C1O (stereo not shown) [compound 243],A1: inhibition of radioligand binding,"Human δ-opioid (DOP); [3H]-Bremazocine, FlashPlate",− (“−” indicates less than 50% inhibition at 10 μM)
same,A2: inhibition of radioligand binding,"Human κ-Opioid (KOP); [3H]-Diprenorphine, filtration",− (“−” indicates less than 50% inhibition at 10 μM)
same,A3: inhibition of radioligand binding,"Human Melanocortin (MC3); [125I]-NDP-αMSH, FlashPlate",− (“−” indicates less than 50% inhibition at 10 μM)
same,A4: inhibition of radioligand binding,"Human Melanocortin (MC4); [125I]-NDP-αMSH, FlashPlate",+ (“+” indicates greater than 50% inhibition at 10 μM)
same,A5: inhibition of radioligand binding,"Human melanocortin (MC5); [125I]-NDP-αMSH, FlashPlate",+ (“+” indicates greater than 50% inhibition at 10 μM)
same,A6: inhibition of radioligand binding,"[1]; [125I]-S36057, FlashPlate",− (“−” indicates less than 50% inhibition at 10 μM)
same,A7: inhibition of radioligand binding,"Human μ-opioid (MOP); [3H]-Naloxone, FlashPlate",− (“−” indicates less than 50% inhibition at 10 μM)
same,A8: inhibition of radioligand binding,"Human neurokinin (NK1); [125I]-Substance P, filtration",+ (“+” indicates greater than 50% inhibition at 10 μM)
same,A9: inhibition of radioligand binding,"[2]; [125I]-PYY, FlashPlate",− (“−” indicates less than 50% inhibition at 10 μM)
same,A10: inhibition of radioligand binding,"Human opioid (ORL1); [125I]-Nociceptin, FlashPlate",− (“−” indicates less than 50% inhibition at 10 μM)
same,A11: inhibition of radioligand binding,"Mouse urotensin (mUR2); [125I]-Urotensin II, FlashPlate",− (“−” indicates less than 50% inhibition at 10 μM)
CSC1O[C@H](COCc2ccc3ccccc3c2)[C@@H](O)[C@@H](OCc2ccc(-c3ccccc3)cc2)[C@H]1NC(=O)CCCNC(=N)N (stereo partly shown) [compound 300],"A1: inhibition of radioligand binding, human δ-opioid (DOP)",Human δ-opioid (DOP); [3H]-Bremazocine,− (“−” indicates less than 50% inhibition at 10 μM)
same,"A2: inhibition of radioligand binding, human κ-opioid (KOP)",Human κ-Opioid (KOP); [3H]-Diprenorphine,− (“−” indicates less than 50% inhibition at 10 μM)
same,"A3: inhibition of radioligand binding, human melanocortin (MC3)",Human Melanocortin (MC3); [125I]-NDP-αMSH,− (“−” indicates less than 50% inhibition at 10 μM)
same,"A4: inhibition of radioligand binding, human melanocortin (MC4)",Human Melanocortin (MC4); [125I]-NDP-αMSH,− (“−” indicates less than 50% inhibition at 10 μM)
same,"A5: inhibition of radioligand binding, human melanocortin (MC5)",Human melanocortin (MC5); [125I]-NDP-αMSH,+ (“+” indicates greater than 50% inhibition at 10 μM)
same,"A6: inhibition of radioligand binding, human melanin-concentrating hormone (MCH1)",[1]; [125I]-S36057,− (“−” indicates less than 50% inhibition at 10 μM)
same,"A7: inhibition of radioligand binding, human μ-opioid (MOP)",Human μ-opioid (MOP); [3H]-Naloxone,− (“−” indicates less than 50% inhibition at 10 μM)
same,"A8: inhibition of radioligand binding, human neurokinin (NK1)",Human neurokinin (NK1); [125I]-Substance P,+ (“+” indicates greater than 50% inhibition at 10 μM)
same,"A9: inhibition of radioligand binding, human neuropeptide Y (NPY-Y1)",[2]; [125I]-PYY,− (“−” indicates less than 50% inhibition at 10 μM)
same,"A10: inhibition of radioligand binding, human opioid (ORL1)",Human opioid (ORL1); [125I]-Nociceptin,− (“−” indicates less than 50% inhibition at 10 μM)
same,"A11: inhibition of radioligand binding, mouse urotensin (mUR2)",Mouse urotensin (mUR2); [125I]-Urotensin II,− (“−” indicates less than 50% inhibition at 10 μM)
